In brackets after ≈: the same amount, converted by molar mass. Read-outs that look alike come from different tables or passages of the source.
Test system: Spodoptera littoralis larvae (second and fourth instars)
Assay: Insecticidal bioassay screening (castor leaf dip), laboratory strain of cotton leafworm
Type: in vivo
Details: for LC90 (mg/L) at 95%: after 72 hrs of treatment; for Toxicity index %: after 72 hrs, reference LC50/compound LC50 x 100; for LC50: Spodoptera littoralis, foliar
Experimental: Five concentrations (200, 100, 50, 25, 12.5 ppm) were designed for this synthetic compound and the reference Diflubenzuron compound as the dynamic ingredients based on ppm via diluting the commercial formulation.
In this experiment, castor leaves are immersed in each of the previously prepared concentrations of the components for 10 seconds and then left to dry for 60 minutes. Larvae of the second and fourth instars of each checked strain are prepared with treated leaves in gauze-covered glass containers for 72 hrs. An untreated control is made in which leaves are dipped in triton x-100 and distilled water only. Then the preserved leaves were removed & fresh, untreated leaves were provided for 72 hours. Three replicates (10 larvae each) were checked for each concentration. Daily inspection was carried out for all treatments and mortality percentages were recorded 3 days (72 hours) after treatment. The average mortality percentage was corrected employing Abbott's formula. The corrected mortality rate for each of the previously synthesized compounds is statistically calculated according to Finney (1970). Through this rate, the corresponding concentration test lines (LDP lines) are assessed.

[1] = 72 h, read-out: LC50 (mg/L) at 95%, 2nd instar larvae, after 72 hrs of treatment
[2] = 72 h, read-out: LC50 (mg/L) at 95%, 4th instar larvae, after 72 hrs of treatment
[3] = against Spodoptera littoralis under laboratory conditions (instar not stated)

| SMILES | LC90 (mg/L) at 95% (2nd instar larvae) | Toxicity index % (2nd instar larvae) | LC90 (mg/L) at 95% (4th instar larvae) | Toxicity index % (4th instar larvae) | LC50 [1] | LC50 [2] | LC50 [3] | Insecticidal activity (in words) (compared with reference insecticide Diflubenzuron) |
| --- | --- | --- | --- | --- | --- | --- | --- | --- |
| O=C(NC(=S)Nc1ccccc1NC(=S)NC(=O)c1ccco1)c1ccco1 [Compound 2, N-[(2-{[(furan-ylcarbonyl)carbamothioyl]amino}phenyl)carbamothioyl]furan-2-carboxamide] | 7450.5 mg/L (≈ 18000 µM) | 10.6% | 1837.2 mg/L (≈ 4430 µM) | 14.7% | 424 mg/L (≈ 1020 µM) | 976 mg/L (≈ 2350 µM) | 424 mg/L (≈ 1020 µM) | active against Spodoptera littoralis |
| O=C(NC(=O)c1c(F)cccc1F)Nc1ccc(Cl)cc1 [Diflubenzuron, reference compound] | 520.0 mg/L (≈ 1670 µM) | 100% | 1540.5 mg/L (≈ 4960 µM) | 100% | 45.2 mg/L (≈ 145 µM) | 144 mg/L (≈ 464 µM) | 45.2 mg/L (≈ 145 µM) |  |

Reference: patent publication US11985975B1, “N-[(2-{[(furan-ylcarbonyl)carbamothioyl]amino }phenyl)carbamothioyl]furan-2-carboxamide as an eco-friendly insecticidal agent against Spodoptera littoralis (boisd.)” (KING FAISAL UNIVERSITY, priority 2023, dated 2024)
